This note sets out measurements from US11840535B2, “Alkynyl(hetero)aromatic compound for inhibiting protein kinase activity” (Shenzhen TargetRx, Inc., priority 2018, dated 2023).

For one series, the target named is ABL^T315I (Homo sapiens (Human), UniProt P00519, T315I). The series is described as follows: Biochemical kinase analysis, ABL T315I. How it is done: (§1) Reagents and materials: ABL (ThermoFisher, Cat. No PV3585), ABL^T315I (Thermo Fisher, Cat. No. PR7429B), ATP (Sigma, Cat. No. A7699-1G), DMSO (Sigma, Cat. No. D2650), 96-well plate (Corning, Cat. No. 3365), 384-well plate (Greiner, Cat. No. 784076), buffer solution (Thermo Fisher, Cat. No. PR4876B).
(§2) Compound formulation: The test compounds were dissolved in DMSO to prepare a 20 mM stock solution. Before use, the compounds were diluted in DMSO to 0.1 mM, and diluted into 11 concentrations with a 3-fold gradient. When addition, diluentions of 4-fold final concentration were then made with buffer solution.
(§3) Kinase assay method: After preparing the buffer, the enzyme was mixed with pre-formulated and diluted compounds of different concentrations in duplicate for each concentration, and placed at room temperature for 30 minutes. The corresponding substrate and ATP were added thereto, and reacted at room temperature for 60 minutes (both a negative and a positive control were set). After the reaction, antibody was added for detection, Envision detection was carried out after 60 minutes incubation at room temperature, and data was collected. Data analysis and fitting were made according to XLfit5 software, wherein, A represents IC50≤5 nM, B represents IC50 is 5-50 nM, C represents IC50 is 50-100 nM, D represents IC50>100 nM.

Series [1] can be described thus: Metabolic stability evaluation, human liver microsome assay. The series is classed as in vitro ADME. The conditions noted are these: pH 7.4, human liver microsomes 0.5 mg/mL, compound 1 μM, 37° C.; for microsomal CLint at 1 μM: read-out: HLM Clint; for half-life at 1 μM: read-out: HLM T1/2. The method, then:
Microsome assay: human liver microsomes: 0.5 mg/mL, Xenotech; coenzyme (NADPH/NADH): 1 mM, Sigma Life Science; magnesium chloride: 5 mM, 100 mM phosphate buffer (pH is 7.4).
Preparation of stock solution: Powder of the example compounds and the reference compound were accurately weighed, and dissolved to 5 mM with DMSO, respectively.
Preparation of phosphate buffer (100 mM, pH7.4): Pre-formulated 150 mL 0.5 M potassium dihydrogen phosphate and 700 mL 0.5 M dipotassium hydrogen phosphate were mixed, then the pH of the mixture was adjusted to 7.4 with 0.5 M dipotassium hydrogen phosphate. Before use, 5-fold dilution was made with ultra-pure water, and magnesium chloride was added to afford phosphate buffer (100 mM), which containing 100 mM potassium phosphate, 3.3 mM magnesium chloride, and pH is 7.4.
NADPH regeneration system solution (containing 6.5 mM NADP, 16.5 mM G-6-P, 3 U/mL G-6-P D, 3.3 mM magnesium chloride) was prepared and placed on wet ice before use.
Preparation of stop solution: Acetonitrile solution containing 50 ng/mL propranolol hydrochloride and 200 ng/mL tolbutamide (internal standard). 25057.5 μL phosphate buffer (pH 7.4) was taken into a 50 mL centrifuge tube, and 812.5 μL human liver microsome was added respectively, mixed well to afford liver microsome diluention with a protein concentration of 0.625 mg/mL.
Incubation of the sample: The stock solutions of the corresponding compounds were diluted to 0.25 mM with an aqueous solution containing 70% acetonitrile as working solutions for use. 398 μL of human liver microsome diluention was taken and added to a 96-well incubation plate (N=2), respectively, and 2 μL of 0.25 mM working solutions were then added respectively, and mixed well.
Determination of metabolic stability: 300 μL of pre-chilled stop solution was added to each well of a 96-well deep well plate and the plate was placed on ice as a stop plate. The 96-well incubation plate and NADPH regeneration system were placed in a 37° C. water bath, shook at 100 rpm, and pre-incubated for 5 min. 80 μL of incubation solution was taken from each well of the incubation plate and added to the stop plate, mixed well, and 20 μL of NADPH regeneration system solution was supplemented, the resulted solution was considered as sample at 0 min. Then 80 μL of NADPH regeneration system solution was added to each well of the incubation plate to start the reaction and started timing. The reaction concentration of the corresponding compound is 1 μM, and the protein concentration is 0.5 mg/mL. 100 μL reaction solution was taken at 10, 30, 90 min of reaction, respectively, and added into stop plate, the reaction was stopped with 3 min vortex. The stop plate was centrifuged at 5000×g, 4° C. for 10 min. 100 μL of supernatant was taken to a 96-well plate where 100 μL of distilled water was added in advance, mixed well, sample analysis was carried out by LC-MS/MS.
Data analysis: LC-MS/MS system was used to detect peak area of corresponding compound and internal standard, peak area ratio of compound to internal standard was calculated. The slope was measured by plotting the natural logarithm of the remaining percentage of the compound versus time, and t1/2 and CLint were calculated according to the following formula, wherein V/M means 1/protein concentration.

Series [2] deals with Ba/F3 Bcr-Abl T315I cells. Nature of the series: Cell proliferation analysis, Ba/F3 Bcr-Abl T315I. The conditions noted are these: for IC50: Mus musculus, BaF3, 72 h, 3 days, CellTiter-Glo; for Selectivity [Ba/F3 (parental/Bcr-Abl ^T315I)]: ratio of Ba/F3 parental to Ba/F3 Bcr-Abl T315I. The series is classed as cell-based. How it is done: (§4) The inhibitory effect of the example compounds on Ba/F3, Ba/F3 Bcr-Abl T315I cell activity was determined.
(§5) Materials and reagents: RPMI-1640 medium (GIBCO, Catalog No. A10491-01), fetal bovine serum (GIBCO, Catalog No. 10099141), antibiotics (Penicillin-Streptomycin), IL-3 (PeproTech), promycin; cell lines: Ba/F3, Ba/F3 Bcr-Abl T315I (Purchased from American type culture collection, ATCC), live cell detection kit […] (Promega, Catalog No. G7572), 96-well black wall transparent flat bottom cell culture plate (Corning, Catalog No. 3340).
(§6) Test method: 1. Preparation of cell plate: Ba/F3, Ba/F3 Bcr-Abl T315I cells were respectively seeded in 96-well plates, and 8 ng/ml IL-3 was added to the Ba/F3 cells, and the cell plates were placed in a carbon dioxide incubator and cultured overnight. 2. The test compounds were dissolved in DMSO, 9 compound concentrations were made with a 3.16-fold gradient dilution in triplicate. 3. Treatment of the cells with compounds: The compounds were transferred to the cell plate with a starting concentration of 10 μM. The cell plate was placed in a carbon dioxide incubator for 3 days. 4. Detection: CellTiter-Glo agent was added to the cell plate, and incubated at room temperature for 30 minutes to stabilize the luminous signal. PerkinElmer Envision multi-label analyzer was used for reading, wherein A represents […], B represents IC50 is 10-20 nM, C represents IC50 is 20-50 nM, D represents IC50 is 50-1000 nM, E represents IC50>1000 nM.

The subject of the next series is Ba/F3 parental cells. Nature of the series: Cell proliferation analysis, Ba/F3 parental. The series is classed as cell-based. The conditions noted are these: Mus musculus, BaF3, 72 h; 8 ng/ml IL-3, 3 days, CellTiter-Glo. The method, then:
as §4, §5, §6

The target in the next series is ABL (Homo sapiens (Human), UniProt P00519). Nature of the series: Biochemical kinase analysis, ABL. The method, then: as §1, §2, §3

Turning to `CCn1cc(C#Cc2cc(C(=O)Nc3ccc(CN4CCN(C)CC4)c(C(F)(F)F)c3)ccc2C)c2c(N)ncnc21` [Example 5, 3-((4-amino-7-ethyl-7H-pyrrolo[2,3-d]pyrimidin-5-yl)ethynyl)-4-methyl-N-(4-((4-methylpiperazin-1-yl)methyl)-3-(trifluoromethyl)phenyl)benzamide], the IC50 against ABL^T315I is no more than 5 nM; in series [2], no more than 10 nM; with Ba/F3 parental cells, 50 to 1000 nM; on ABL, no more than 5 nM. Also, in series [1], the microsomal CLint at 1 μM turned out to be 19.9 µL/min/mg. Besides, the half-life at 1 μM in series [1] was 1.16 h. Moreover, the “Selectivity [Ba/F3 (parental/Bcr-Abl ^T315I)]” value in series [2] is 100~150.

For the compound `CCn1cc(C#Cc2cc(C(=O)Nc3cccc(C(F)(F)F)c3)ccc2C)c2c(N)ncnc21` [Example 6, 3-((4-amino-7-ethyl-7H-pyrrolo[2,3-d]pyrimidin-5-yl)ethynyl)-4-methyl-N-(3-(trifluoromethyl)phenyl)benzamide], the IC50 was no more than 5 nM on ABL^T315I, 10 to 20 nM in series [2], greater than 1000 nM with Ba/F3 parental cells and no more than 5 nM at ABL. The microsomal CLint at 1 μM in series [1] was 3.5 µL/min/mg. The half-life at 1 μM in series [1] worked out at 6.58 h. The “Selectivity [Ba/F3 (parental/Bcr-Abl ^T315I)]” value in series [2] is given as 100~150.

For the compound `Cc1cn(-c2cc(NC(=O)c3ccc(C)c(C#Cc4cn(C(C)C)c5ncnc(N)c45)c3)cc(C(F)(F)F)c2)cn1` [Example 12, 3-((4-amino-7-isopropyl-7H-pyrrolo[2,3-d]pyrimidin-5-yl)ethynyl)-4-methyl-N-(3-(4-methyl-1H-imidazol-1-yl)-5-(trifluoromethyl)phenyl)benzamide], the IC50 is 5 to 50 nM against ABL^T315I, 20 to 50 nM in series [2], greater than 1000 nM in the series with Ba/F3 parental cells and 5 to 50 nM on ABL. Moreover, the microsomal CLint at 1 μM in series [1] was 20.9 µL/min/mg. Besides, the half-life at 1 μM in series [1] amounted to 1.11 h. Also, the “Selectivity [Ba/F3 (parental/Bcr-Abl ^T315I)]” value in series [2] is given as 150~500.

`Cc1ccc(C(=O)Nc2ccc(CN3CCN(C)CC3)c(C(F)(F)F)c2)cc1C#Cc1cn(C(C)C)c2ncnc(N)c12` [Example 15, 3-((4-amino-7-isopropyl-7H-pyrrolo[2,3-d]pyrimidin-5-yl)ethynyl)-4-methyl-N-(4-((4-methylpiperazin-1-yl)methyl)-3-(trifluoromethyl)phenyl)benzamide]: the IC50 at ABL^T315I was no more than 5 nM; in series [2] it was 20 to 50 nM; with Ba/F3 parental cells, greater than 1000 nM; at ABL, no more than 5 nM. Moreover, the microsomal CLint at 1 μM in series [1] was determined as 11.8 µL/min/mg. Also, in series [1], the half-life at 1 μM came to 1.95 h. Also, the “Selectivity [Ba/F3 (parental/Bcr-Abl ^T315I)]” value in series [2] is given as 0~50.

Consider `CCn1cc(C#Cc2cc(NC(=O)c3cccc(C(F)(F)F)c3)ccc2C)c2c(N)ncnc21` [Example 17, N-(3-((4-amino-7-ethyl-7H-pyrrolo[2,3-d]pyrimidin-5-yl)ethynyl)-4-methylphenyl)-3-(trifluoromethyl)benzamide], for which the IC50 at ABL^T315I was no more than 5 nM; in series [2], 10 to 20 nM; in the series with Ba/F3 parental cells it was greater than 1000 nM; against ABL, no more than 5 nM. The microsomal CLint at 1 μM in series [1] stood at 17.2 µL/min/mg. For the same compound, the half-life at 1 μM in series [1] was determined as 1.34 h. Besides, the “Selectivity [Ba/F3 (parental/Bcr-Abl ^T315I)]” value in series [2] is recorded as 50~100.

In the case of `CCn1cc(C#Cc2cc(NC(=O)c3ccc(CN4CCN(C)CC4)c(C(F)(F)F)c3)ccc2C)c2c(N)ncnc21` [Example 18, N-(3-((4-amino-7-ethyl-7H-pyrrolo[2,3-d]pyrimidin-5-yl)ethynyl)-4-methylphenyl)-4-((4-methylpiperazin-1-yl)methyl)-3-(trifluoromethyl)benzamide], the IC50 at ABL^T315I is no more than 5 nM; in series [2], no more than 10 nM; with Ba/F3 parental cells it was greater than 1000 nM; on ABL it was no more than 5 nM. The microsomal CLint at 1 μM in series [1] came out at 17 µL/min/mg. For the same compound, the half-life at 1 μM in series [1] is 1.36 h. Also, the “Selectivity [Ba/F3 (parental/Bcr-Abl ^T315I)]” value in series [2] was 100~150.

On to `Cc1ccc(C(=O)Nc2ccc(CN3CCN(C)CC3)c(C(F)(F)F)c2)cc1C#Cc1cn([C@H]2CC[C@H](O)CC2)c2ncnc(N)c12` [Example 22, 3-((4-amino-7-((1r,4r)-4-hydroxycyclohexyl)-7H-pyrrolo[2,3-d]pyrimidin-5-yl)ethynyl)-4-methyl-N-(4-((4-methylpiperazin-1-yl)methyl)-3-(trifluoromethyl)phenyl)benzamide], for which the IC50 was no more than 5 nM against ABL^T315I, 20 to 50 nM in series [2], greater than 1000 nM in the series on Ba/F3 parental cells and no more than 5 nM against ABL. Further, the microsomal CLint at 1 μM in series [1] amounted to 6.1 µL/min/mg. The half-life at 1 μM in series [1] turned out to be 3.8 h. For the same compound, in series [2], the “Selectivity [Ba/F3 (parental/Bcr-Abl ^T315I)]” value is recorded as 0~50.

As to `Cc1ccc(C(=O)Nc2ccc(C)c(C(F)(F)F)c2)cc1C#Cc1cn([C@H]2CC[C@H](O)CC2)c2ncnc(N)c12` [Example 24, 3-((4-amino-7-((1r,4r)-4-hydroxycyclohexyl)-7H-pyrrolo[2,3-d]pyrimidin-5-yl)ethynyl)-4-methyl-N-(4-methyl-3-(trifluoromethyl)phenyl)benzamide], the IC50 was 5 to 50 nM at ABL^T315I, 10 to 20 nM in series [2], greater than 1000 nM in the series on Ba/F3 parental cells and no more than 5 nM at ABL. In series [2], the “Selectivity [Ba/F3 (parental/Bcr-Abl ^T315I)]” value is recorded as 150~500.
